What is called IC50 is the concentration that inhibits the measured activity by half. High values mean lower potency, low ones higher potency.

This is an account of results in PMC3690544 (European journal of pharmacology, 2012).

The structures appear in SMILES notation. Where two headings read alike, the source gives them in different places.

In test [1] the target is T1, P-glycoprotein (Pgp) (Homo sapiens, UniProt P08183). It is filed as cell-based.
Test [2] has as its target T1, P-glycoprotein (Pgp). Type of test: cell-based. The source holds these as a separate data set.

T1 sequence (P08183 whole entry): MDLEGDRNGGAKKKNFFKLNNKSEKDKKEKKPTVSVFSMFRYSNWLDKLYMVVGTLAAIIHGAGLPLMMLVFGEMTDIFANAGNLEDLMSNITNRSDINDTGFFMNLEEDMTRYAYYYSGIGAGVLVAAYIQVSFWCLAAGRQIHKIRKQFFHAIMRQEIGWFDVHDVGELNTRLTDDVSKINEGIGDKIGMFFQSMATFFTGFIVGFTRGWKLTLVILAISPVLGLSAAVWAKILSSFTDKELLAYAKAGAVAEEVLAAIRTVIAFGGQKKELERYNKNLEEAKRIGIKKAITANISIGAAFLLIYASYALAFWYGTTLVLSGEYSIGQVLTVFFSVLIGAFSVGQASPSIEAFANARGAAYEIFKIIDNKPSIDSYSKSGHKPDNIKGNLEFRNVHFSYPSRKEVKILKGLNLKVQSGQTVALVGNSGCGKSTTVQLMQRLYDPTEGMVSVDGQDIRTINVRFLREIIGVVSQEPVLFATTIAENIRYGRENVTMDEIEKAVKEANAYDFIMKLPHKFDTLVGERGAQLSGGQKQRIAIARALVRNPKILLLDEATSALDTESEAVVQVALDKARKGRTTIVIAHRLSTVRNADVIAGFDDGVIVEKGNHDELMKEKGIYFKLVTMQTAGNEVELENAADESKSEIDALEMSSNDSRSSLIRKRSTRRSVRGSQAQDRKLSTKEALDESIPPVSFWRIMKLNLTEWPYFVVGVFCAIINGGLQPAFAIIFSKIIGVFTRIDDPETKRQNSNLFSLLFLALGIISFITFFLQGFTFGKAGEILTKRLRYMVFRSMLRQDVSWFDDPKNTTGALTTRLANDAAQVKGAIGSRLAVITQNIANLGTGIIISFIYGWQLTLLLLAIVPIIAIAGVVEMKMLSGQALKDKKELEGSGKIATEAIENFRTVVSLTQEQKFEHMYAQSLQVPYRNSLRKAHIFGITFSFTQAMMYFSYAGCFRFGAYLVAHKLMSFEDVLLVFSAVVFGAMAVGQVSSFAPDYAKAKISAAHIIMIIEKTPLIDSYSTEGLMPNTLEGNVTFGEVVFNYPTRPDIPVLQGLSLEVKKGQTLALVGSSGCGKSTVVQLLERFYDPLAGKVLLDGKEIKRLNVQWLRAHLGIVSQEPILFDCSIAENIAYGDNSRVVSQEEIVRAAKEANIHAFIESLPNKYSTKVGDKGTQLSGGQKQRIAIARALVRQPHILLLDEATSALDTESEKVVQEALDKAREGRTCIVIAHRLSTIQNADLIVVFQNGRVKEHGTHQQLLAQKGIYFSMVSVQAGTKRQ

As for `COc1cc2c(cc1OC)CN(CCc1ccc(NC(=O)c3cc(OC)c(OC)cc3NC(=O)c3cnc4ccccc4c3)cc1)CC2` [tariquidar], the midpoint of inhibition against P-glycoprotein (Pgp) [1], the IC50, lay at 8.2 ± 2 nM.

Take `COc1cc2c(cc1OC)CN(CCc1ccc(-n3nnc(-c4cc(OC)c(OC)cc4NC(=O)c4cc(=O)c5ccccc5o4)n3)cc1)CC2` [HM30181, N-(2-(2-(4-(2-(6,7-dimethoxy-3,4-dihydroisoquinolin-2(1H)-yl)ethyl)phenyl)-2H-tetrazol-5-yl)-4,5-dimethoxyphenyl)-4-oxo-4H-chromene-2-carboxamide]: the IC50 against P-glycoprotein (Pgp) [2] was 13.1 ± 2.3 nM.
